# Test results reported in paper PMC9686516, “Pharmacokinetic Characteristics of Nebulized Colistimethate Sodium Using Two Different Types of Nebulizers in Critically Ill Patients with Ventilator-Associated Respiratory Infections” (Antibiotics, 2022).
# Read-outs that look alike come from different tables or passages of the source. Where a SMILES comes first, the peptide text is derived from it. Bridges are numbered along the chain shown (N, C = ends). [ ]: non-standard residue; d: D form. The star is where a group is joined. X1 = CC[C@H](C)CCCCC(=O)*; Dab = NCC[C@H](N)C(=O)O
# Experiments:
# [1] = Colistin pharmacokinetics in epithelial lining fluid (ELF) after nebulized CMS in ventilated VARI patients; format: in vivo, human; conditions: 2 mIU CMS inhaled; for AUC0–8 h: ELF (mini-BAL, urea-corrected), no systemic CMS, HPLC-fluorescence; for AUC0–8 h / Volume of distribution/ fraction of dose absorbed / Clearance/fraction of dose absorbed / Cmax: NCA; for AUC0–8 h / Volume of distribution/ fraction of dose absorbed / Clearance/fraction of dose absorbed / Cmax / AUC0–24 / Cmin / Tmax / level at 1 h / level at 4 h / level at 6 h / level at 8 h: median (IQR); for Ccolistin over 2 mg/L, frequency of patients / Ccolistin over 4 mg/L, frequency of patients / Volume of distribution/ fraction of dose absorbed / Clearance/fraction of dose absorbed / Cmax / AUC0–24 / Cmin / Tmax / level at 1 h / level at 4 h / level at 6 h / level at 8 h: ELF; for Volume of distribution/ fraction of dose absorbed: dose/(λ × AUCinf); for Clearance/fraction of dose absorbed: dose/AUCinf; for AUC0–24: calculated as AUCinf × 3 (thrice daily), total colistin; for level at 1 h / level at 4 h / level at 6 h / level at 8 h / Kp: human, inhaled or intranasal, 2 mIU; for level at 1 h / level at 4 h / level at 6 h / level at 8 h: epithelial lining fluid (ELF), read-out: Ccolistin,ELF; for level at 1 h: 1 h post-nebulization; for level at 4 h: 4 h post-nebulization; for level at 6 h: 6 h post-nebulization; for level at 8 h: 8 h post-nebulization; for Kp: epithelial lining fluid (ELF)/plasma, ELF/plasma mean concentration ratio, mean (SD), SD
# From the text: The study population consisted of 24 critically ill adult patients, admitted to the intensive care unit of the First Department of Pulmonology of the National and Kapodistrian University of Athens between June 2014 and November 2017. All patients were intubated and mechanically ventilated, and received inhaled CMS as part of their treatment for VAP or VAT caused by Gram-negative pathogens. Subjects were studied around the first dose of nebulized treatment, which always preceded intravenous treatment, to avoid confounding by colistin (or CMS) reaching the ELF via the systemic circulation. We excluded patients that received a dose different to the institution’s standard of 2 million international units (mIU) (~160 mg) of CMS and patients who were planned to receive intravenous colistin within 8 h of nebulization initiation.
# A dose of 2 mIU of CMS (Colistin®, Norma Hellas, Athens, Greece), corresponding to approximately 160 mg CMS or 68 mg colistin-base activity, was nebulized over a 10–30 min period via either VMN (Aeroneb Solo with Aeroneb Pro controller, Aerogen, Galway, Ireland) or generic JN. This was not a randomized trial, and the nebulizer selection was exclusively a matter of availability of VMN consumables in the ICU at the time. The intended dose was dissolved in 4 mL of normal saline 0.9%. The nebulizer was placed at the inspiratory limb of the ventilator circuit, at 15 cm from the Y-piece, and the heat and moisture exchanger was removed. During nebulization, the patients were sedated and ventilated using assist volume controlled mode, with tidal volume set at 8 mL/kg of ideal body weight, a constant squared-wave inspiratory flow, a positive end expiratory pressure (PEEP) of less than or equal to 10 cm H2O, an inspiratory to expiratory time ratio equal to 1, an inspiratory pause of 10%, and a respiratory rate set at 15/min [31].
# […] The catheter was inserted through the endotracheal tube. The lavage was performed with instillation of 2 syringes of 20 mL sterile normal saline at room temperature through the catheter. The aspirate from the first syringe was considered representative of bronchial washing and was, therefore, discarded. The aspirate from the second syringe was collected and centrifuged in frigid centrifuge (3500× g for 10 min at 4 °C) immediately (<2 min) to avoid falsely elevated levels of urea in BAL [34] and CMS hydrolysis to formed colistin. The supernatant liquid was stored in plastic micro test tubes (Safe-lock; Eppendorf AG; Hamburg, Germany) and frozen at –80 °C, until analysis.
# Colistin concentrations in plasma (Ccolistin,plasma) and epithelial lining fluid (Ccolistin,ELF) were measured through high performance liquid chromatography (HPLC)-fluorescence analysis.
# The samples were rapidly centrifuged, and plasma and BAL supernatant were separated and kept frozen (−80 °C) before analysis, as previously described. An HPLC-RF assay was used for colistin concentration measurements in plasma and BAL fluid samples, based on the method of Li et al., as modified by Markou et al. and Ratjen et al.. Briefly, netilmicin was used as the internal standard and the method consisted of a protein precipitation step with trifluoracetic acid (TFA), followed by colistin derivatization with 9-fluorenylmethyl chloroformate on a solid phase extraction C18 cartridge. The eluted fluid was dried under vacuum and the solid residue was reconstituted in mobile phase for subsequent reversed-phase HPLC with fluorescence detection (excitation: 260 nm; emission: 316 nm). The analytical column was a Phenomenex Luna C18, 3 μm, 50 mm × 3 mm with 100 Å particle size, while the mobile phase consisted of ACN/THF/H2O (80/7.7/12.3%) with a flow rate of 0.5 mL/min. The injection volume was 20 μL. The method was linear at a concentration range of 0.10–4.8 mg/L (R^2 = 0.999). […]
# [2] = cited from earlier work
# Protocol: The median (IQR) values of colistin concentration in plasma (Ccolistin, plasma) using VMN nebulization were 0.6 (0.4–0.7) mg/L, 2.3 (1.4–2.7) mg/L, 1.7 (1.1–2.0) mg/L, 0.8 (0.7–0.9) mg/L, 0.4 (0.3–0.6) mg/L, and 0.2 (0.2–0.4) mg/L, at 0.5, 1, 2, 4, 6 and 8 h post-nebulization. The corresponding values with JN were 0.1 (0.1–0.1) mg/L, 0.1 (0.1–0.2) mg/L, 0.3 (0.3–0.4) mg/L, 0.2 (0.2–0.2) mg/L, 0.1 (0.1–0.1) mg/L, and 0.1 (0.1–0.1) mg/L (Figure 3). Median Ccolistin, plasma was greater than 2 mg/L at 1 h post-nebulization, a value which is the average concentration, in steady-state conditions, th ... || Contrarily, our results were only marginally compatible with the results of Boisson et al. and Gkoufa et al.. In the former study, the range of colistin concentration in the ELF following a 2 mIU inhalation spanned from 9.53 to 1137 mg/L [14], while it was between 0.8 mg/L and 57.9 mg/L in the present study. In the latter study, the exact values were not reported, however in the figured data it was shown that after an inhalation of 3 to 5 mIU of CMS, formed colistin concentrations were in the range of 10^2 to 10^3 mg/L [16]. Again, it is not known whether these differences we ...
# [3] = adjunctive aerosolized colistin; meta-analysis of mostly observational data; cited from earlier work
# From the text: The rationale has been the theoretic ability to achieve sufficient concentration in the infectious milieu of the lung parenchyma while sparing any significant systemic adverse outcome. In contrast to these theoretical considerations, inhaled CMS has only had modest efficacy and in ...
smiles,measurement,setting,value
CC[C@H](C)CCCCC(=O)N[C@@H](CCN)C(=O)N[C@H](C(=O)N[C@@H](CCN)C(=O)N[C@H]1CCNC(=O)[C@H]([C@@H](C)O)NC(=O)[C@H](CCN)NC(=O)[C@H](CCN)NC(=O)[C@H](CC(C)C)NC(=O)[C@@H](CC(C)C)NC(=O)[C@H](CCN)NC1=O)[C@@H](C)O [colistin] (X1-[Dab]T[Dab][Dab][Dab][dL]L[Dab][Dab]T; lactam 4-C),AUC0–8 h,"[1]; JN, n = 6",30.5 (26.0–36.8) mg/L∙h
same,AUC0–8 h,"[1]; VMN, n = 18",28.7 (15.1–68.1) mg/L∙h
same,"Ccolistin over 2 mg/L, frequency of patients","[1]; 60 min, JN, n = 6",16.7%
same,"Ccolistin over 4 mg/L, frequency of patients","[1]; 60 min, JN, n = 6",16.7%
same,"Ccolistin over 2 mg/L, frequency of patients","[1]; 240 min, JN, n = 6",100%
same,"Ccolistin over 4 mg/L, frequency of patients","[1]; 240 min, JN, n = 6",83.3%
same,"Ccolistin over 2 mg/L, frequency of patients","[1]; 240 min, VMN, n = 18",50%
same,"Ccolistin over 4 mg/L, frequency of patients","[1]; 240 min, VMN, n = 18",27.8%
same,"Ccolistin over 2 mg/L, frequency of patients","[1]; 360 min, JN, n = 6",83.3%
same,"Ccolistin over 4 mg/L, frequency of patients","[1]; 360 min, JN, n = 6",33.3%
same,"Ccolistin over 2 mg/L, frequency of patients","[1]; 360 min, VMN, n = 18",88.9%
same,"Ccolistin over 4 mg/L, frequency of patients","[1]; 360 min, VMN, n = 18",83.3%
same,"Ccolistin over 2 mg/L, frequency of patients","[1]; 480 min, JN, n = 6",0%
same,"Ccolistin over 4 mg/L, frequency of patients","[1]; 480 min, JN, n = 6",0%
same,"Ccolistin over 2 mg/L, frequency of patients","[1]; 480 min, VMN, n = 18",41.2%
same,"Ccolistin over 4 mg/L, frequency of patients","[1]; 480 min, VMN, n = 18",17.6%
same,Volume of distribution/ fraction of dose absorbed,"[1]; JN, n = 6",4.5 (3.5–5.1) L
same,Clearance/fraction of dose absorbed,"[1]; JN, n = 6",1.8 (1.5–2.1) L/h
same,Cmax,"[1]; JN, n = 6",7.4 (6.2–10.3) mg/L
same,AUC0–24,"[1]; JN, n = 6",91.5 (78.1–110.3) mg/L∙h
same,Cmin,"[1]; JN, n = 6",1.1 (0.9–1.2) mg/L
same,Tmax,"[1]; JN, n = 6",4.3 (3.5–4.3) h
same,Volume of distribution/ fraction of dose absorbed,"[1]; VMN, n = 18",1.7 (0.8–5.2) L
same,Clearance/fraction of dose absorbed,"[1]; VMN, n = 18",1.4 (0.8–3.6) L/h
same,Cmax,"[1]; VMN, n = 18",10.4 (4.7–22.6) mg/L
same,AUC0–24,"[1]; VMN, n = 18",86.2 (46.0–185.9) mg/L∙h
same,Cmin,"[1]; VMN, n = 18",0.4 (0.1–0.8) mg/L
same,Tmax,"[1]; VMN, n = 18",6.5 (6.3–6.6) h
same,level at 1 h,"[1]; JN, n = 6",1200 ng/mL
same,level at 1 h,"[1]; VMN, n = 18",700 ng/mL
same,level at 4 h,"[1]; JN, n = 6",6420 ng/mL
same,level at 4 h,"[1]; VMN, n = 18",2100 ng/mL
same,level at 6 h,"[1]; JN, n = 6",3300 ng/mL
same,level at 6 h,"[1]; VMN, n = 18",8600 ng/mL
same,level at 8 h,"[1]; JN, n = 6",1300 ng/mL
same,level at 8 h,"[1]; VMN, n = 18",1420 ng/mL
same,Kp,"[1]; JN, n = 6",4.8
same,Kp,"[1]; VMN, n = 18",5.5
same,"average plasma concentration, in steady-state conditions, that predicts acute renal failure",[2],2 mg/L
same,formed colistin plasma values linked to the occurrence of nephrotoxicity,[2],2 to 2.5 mg/L
same,decrease in the odds of infection-related mortality,[3],~40%
same,increase in the odds of clinical cure,[3],approximately 60%
